Patent US9387209B2, “Histone deacetylases (HDACs) inhibitors” (ANNJI PHARMACEUTICAL CO., LTD., priority 2012, dated 2016)
Where two headings read alike, the source gives them in different places.

Experiments:
[1] = target: T1, human histone deacetylases (HDAC) 6 (Homo sapiens, UniProt Q9UBN7); assay: HDAC enzymatic assay, HDAC6; format: biochemical; details: for selective inhibitions on HDAC6: HDAC6 versus other HDACs
T1 sequence (Q9UBN7 1-1215): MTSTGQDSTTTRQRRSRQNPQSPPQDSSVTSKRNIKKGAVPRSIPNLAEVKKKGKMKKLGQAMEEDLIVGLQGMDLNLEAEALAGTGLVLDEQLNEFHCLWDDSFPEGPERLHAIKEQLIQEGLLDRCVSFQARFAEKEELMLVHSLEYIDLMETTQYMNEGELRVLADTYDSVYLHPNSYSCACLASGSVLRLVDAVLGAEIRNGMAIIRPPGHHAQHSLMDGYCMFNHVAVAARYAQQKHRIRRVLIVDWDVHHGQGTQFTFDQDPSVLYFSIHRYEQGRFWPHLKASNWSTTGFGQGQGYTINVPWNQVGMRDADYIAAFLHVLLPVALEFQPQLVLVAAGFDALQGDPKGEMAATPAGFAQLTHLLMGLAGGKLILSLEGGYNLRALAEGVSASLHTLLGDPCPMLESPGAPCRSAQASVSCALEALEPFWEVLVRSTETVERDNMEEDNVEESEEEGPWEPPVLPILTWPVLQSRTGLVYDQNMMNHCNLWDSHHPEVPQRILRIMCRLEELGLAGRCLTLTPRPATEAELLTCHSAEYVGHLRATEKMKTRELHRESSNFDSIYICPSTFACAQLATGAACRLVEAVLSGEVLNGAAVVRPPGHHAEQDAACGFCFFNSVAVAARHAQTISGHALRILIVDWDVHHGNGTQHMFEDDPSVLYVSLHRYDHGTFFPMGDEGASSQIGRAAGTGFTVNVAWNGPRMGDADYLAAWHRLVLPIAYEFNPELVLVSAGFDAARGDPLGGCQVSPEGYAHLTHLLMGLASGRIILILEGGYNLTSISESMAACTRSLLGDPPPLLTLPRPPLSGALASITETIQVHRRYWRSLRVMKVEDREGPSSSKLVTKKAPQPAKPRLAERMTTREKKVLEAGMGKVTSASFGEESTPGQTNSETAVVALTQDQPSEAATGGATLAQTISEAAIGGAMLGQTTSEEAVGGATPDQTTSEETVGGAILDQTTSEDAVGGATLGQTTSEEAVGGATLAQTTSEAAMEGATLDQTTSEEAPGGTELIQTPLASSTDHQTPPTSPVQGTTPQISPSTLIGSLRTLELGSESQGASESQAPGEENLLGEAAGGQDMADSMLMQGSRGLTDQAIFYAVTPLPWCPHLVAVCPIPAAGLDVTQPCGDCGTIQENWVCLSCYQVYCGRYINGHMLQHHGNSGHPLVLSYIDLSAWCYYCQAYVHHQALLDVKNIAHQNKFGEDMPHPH

[2] = target: T2, human histone deacetylases (HDAC) 8 (Homo sapiens, UniProt Q9BY41); assay: HDAC enzymatic assay, HDAC8; format: biochemical
T2 sequence (Q9BY41 1-377): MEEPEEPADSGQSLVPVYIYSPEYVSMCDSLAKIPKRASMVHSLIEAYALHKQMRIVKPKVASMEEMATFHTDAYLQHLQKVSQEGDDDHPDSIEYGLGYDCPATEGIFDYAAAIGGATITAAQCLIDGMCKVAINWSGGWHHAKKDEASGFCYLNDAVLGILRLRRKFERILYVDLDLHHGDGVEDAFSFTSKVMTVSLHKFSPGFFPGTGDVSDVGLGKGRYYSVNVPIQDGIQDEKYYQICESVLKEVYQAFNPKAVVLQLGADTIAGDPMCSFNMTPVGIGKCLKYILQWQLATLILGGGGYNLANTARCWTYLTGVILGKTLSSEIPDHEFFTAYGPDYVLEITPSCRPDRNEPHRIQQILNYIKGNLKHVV

[3] = target: human histone deacetylases (HDAC) 1 (Homo sapiens, UniProt Q13547); assay: HDAC enzymatic assay, HDAC1; format: biochemical; details: read-out: IC50 HDAC1 (grading)
PC 12 cells [4] = assay: Neurite outgrowth assay, PC 12; format: cell-based; details: Rattus norvegicus
SH-SY5Y cells [5] = assay: Neurite outgrowth assay, SH-SY5Y; format: cell-based; details: Homo sapiens
PC 12 cells [6] = assay: Neurite synaptic uptake activity (FM1-43), PC 12; format: cell-based; details: Rattus norvegicus, NGF positive control taken as 100%, read-out: uptake of dye FM1-43 EC50
Description: (§1) Neurite Synaptic Uptake Activity Analysis.
(§2) The effects of compounds on the neuronal synapse uptake of fluorescent indicator FM1-43 were assayed. The uptake of the dye indicated the synaptic function of the neurites. PC 12 and SH-SY5Y cells were used. Cells in experimental groups were treated with a test compound and FM1-43; Cells in positive control were treated with NGF and FM1-43; Cells in negative control were treated with a vehicle and FM1-43. The fluorescence in the positive control were taken as 100%.

SH-SY5Y cells [7] = assay: Neurite synaptic uptake activity (FM1-43), SH-SY5Y; format: cell-based; details: Homo sapiens, NGF positive control taken as 100%, read-out: uptake of dye FM1-43 EC50
Description: as §1, §2

[8] = MTT or SRB assay for cytotoxicity, A549; format: cell-based; details: human, A549 cells, read-out: cytotoxicity IC50 (grading) A549
Description: (§3) MTT or SRB Assays for Cytotoxicities of HDAC Inhibitors.
(§4) These compounds were assayed for cytotoxicities to the following cells: A549 cells (adenocarcinomic human alveolar basal epithelial cells), HCT-116 cells (human colon carcinoma cells). PANC-1 cells (human pancreatic carcinoma, epithelial-like cell line) and HepG2 cells (human liver hepatocellular carcinoma cell line), neuronal cells PC12 (rat pheochromocytoma cell line) and SH-SY5Y (human neuroblastoma cell line). MTT (3-[4,5-dimethylthiazol-2-yl]2,5-diphenyl-tetrazolium bromide) reduction was collaborated by using trypan blue exclusion assay.

[9] = MTT or SRB assay for cytotoxicity, HCT116; format: cell-based; details: human, HCT-116 cells, read-out: cytotoxicity IC50 (grading) HCT116
Description: as §3, §4

[10] = MTT or SRB assay for cytotoxicity, PANC1; format: cell-based; details: human, PANC-1 cells, read-out: cytotoxicity IC50 (grading) PANC1
Description: as §3, §4

[11] = MTT or SRB assay for cytotoxicity, HepG2; format: cell-based; details: human, HepG2 cells, read-out: cytotoxicity IC50 (grading) HepG2
Description: as §3, §4

[12] = HDAC6, read-out: IC50 HDAC6 (grading)
[13] = HDAC8, read-out: IC50 HDAC8 (grading)

Sequence of human histone deacetylases (HDAC) 1 (Q13547 whole entry): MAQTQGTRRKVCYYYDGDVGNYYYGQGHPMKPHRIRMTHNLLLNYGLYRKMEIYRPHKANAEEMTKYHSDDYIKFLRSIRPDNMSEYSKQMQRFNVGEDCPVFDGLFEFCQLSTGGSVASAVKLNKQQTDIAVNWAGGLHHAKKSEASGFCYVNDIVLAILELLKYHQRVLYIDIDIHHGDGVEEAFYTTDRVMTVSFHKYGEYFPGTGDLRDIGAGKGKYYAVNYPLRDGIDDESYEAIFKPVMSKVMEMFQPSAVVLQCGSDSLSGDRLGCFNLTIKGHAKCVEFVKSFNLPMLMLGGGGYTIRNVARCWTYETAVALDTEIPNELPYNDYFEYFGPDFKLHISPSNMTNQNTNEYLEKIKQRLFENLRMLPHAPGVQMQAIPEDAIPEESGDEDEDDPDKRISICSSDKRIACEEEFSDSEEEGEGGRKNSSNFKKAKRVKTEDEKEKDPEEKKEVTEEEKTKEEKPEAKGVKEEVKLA

Cc1nc2cc(/C=C/C(=O)NO)ccc2c(=O)n1-c1ccccc1 [Compound 1c, (2E)-3-(3,4-dihydro-2-methyl-4-oxo-3-phenylquinazolin-7-yl)-N-hydroxyacrylamide]
IC50 [1]: < 0.1 µM | IC50 [2]: 1 to 10 µM

CCc1nc2cc(/C=C/C(=O)NO)ccc2c(=O)n1CCCc1ccccc1 [Compound 1j, (2E)-3-(2-ethyl-3,4-dihydro-4-oxo-3-(3-phenylpropyl)quinazolin-7-yl)-N-hydroxyacrylamide]
IC50 [3]: 1 to 10 µM | IC50 [1, 12]: < 0.1 µM | selective inhibitions on HDAC6 [1]: selective inhibitions on HDAC6 | IC50 [2, 13]: 1 to 10 µM | EC50 (PC 12 cells [4]): 6.95 ± 0.82 µM | EC50 (SH-SY5Y cells [5]): 9.97 ± 1.17 µM | EC50 (PC 12 cells [6]): 6.95 ± 0.82 µM | EC50 (SH-SY5Y cells [7]): 9.97 ± 1.17 µM | melting point: 189 to 191 °C

O=C(/C=C/c1ccc2c(=O)n(CCc3ccccc3)c(C3CC3)nc2c1)NO [Compound 1k, (2E)-3-(2-cyclopropyl-3,4-dihydro-4-oxo-3-phenethylquinazolin-7-yl)-N-hydroxyacrylamide]
IC50 [3]: 0.1 to 1 µM | IC50 [1, 12]: < 0.1 µM | EC50 (PC 12 cells [4]): 0.76 ± 0.69 µM | EC50 (SH-SY5Y cells [5]): > 30 µM | EC50 (PC 12 cells [6]): 0.76 ± 0.69 µM | EC50 (SH-SY5Y cells [7]): > 30 µM | melting point: 204 to 206 °C (dec.)

CC(C)c1nc2cc(/C=C/C(=O)NO)ccc2c(=O)n1CCc1ccccc1 [Compound 1l, (2E)-3-(3,4-dihydro-2-isopropyl-4-oxo-3-phenethylquinazolin-7-yl)-N-hydroxyacrylamide]
IC50 [3]: 0.1 to 1 µM | IC50 [1, 12]: < 0.1 µM | EC50 (PC 12 cells [4]): 5.28 ± 0.51 µM | EC50 (SH-SY5Y cells [5]): 6.74 ± 0.78 µM | EC50 (PC 12 cells [6]): 5.28 ± 0.51 µM | EC50 (SH-SY5Y cells [7]): 6.74 ± 0.78 µM | melting point: 173 to 174 °C (dec.)

CCc1nc2cc(/C=C/C(=O)NO)c(F)cc2c(=O)n1CCc1ccccc1 [Compound 2a, (2E)-3-(2-ethyl-6-fluoro-3,4-dihydro-4-oxo-3-phenethylquinazolin-7-yl)-N-hydroxyacrylamide]
IC50 [3]: 1 to 10 µM | IC50 [1, 12]: < 0.1 µM | selective inhibitions on HDAC6 [1]: selective inhibitions on HDAC6 | IC50 [2, 13]: 1 to 10 µM | IC50 [8]: 1 to 10 µM | IC50 [9]: 1 to 10 µM | IC50 [10]: 1 to 10 µM | IC50 [11]: 1 to 10 µM | EC50 (PC 12 cells [6]): 1.66 ± 0.76 µM

CCc1nc2cc(F)c(/C=C/C(=O)NO)cc2c(=O)n1CCc1ccccc1 [Compound 3a, (2E)-3-(2-ethyl-7-fluoro-3,4-dihydro-4-oxo-3-phenethylquinazolin-6-yl)-N-hydroxyacrylamide]
IC50 [3]: 1 to 10 µM | IC50 [1, 12]: < 0.1 µM | selective inhibitions on HDAC6 [1]: selective inhibitions on HDAC6 | IC50 [2, 13]: 0.1 to 1 µM | IC50 [8]: 1 to 10 µM | IC50 [9]: ≥ 10 µM | IC50 [10]: ≥ 10 µM | IC50 [11]: ≥ 10 µM | EC50 (PC 12 cells [6]): 0.78 ± 0.49 µM | melting point: 183 to 185 °C (dec.)

CCc1nc2cc(Cl)c(/C=C/C(=O)NO)cc2c(=O)n1CCc1ccccc1 [Compound 3b, (2E)-3-(7-chloro-2-ethyl-3,4-dihydro-4-oxo-3-phenethylquinazolin-6-yl)-N-hydroxyacrylamide]
IC50 [3]: > 10 µM | IC50 [1, 12]: 0.1 to 1 µM | IC50 [2, 13]: 1 to 10 µM | IC50 [8]: 1 to 10 µM | IC50 [9]: ≥ 10 µM | IC50 [10]: 0.1 to 1 µM | IC50 [11]: ≥ 10 µM | EC50 (PC 12 cells [4]): 10.7 ± 1.26 µM | EC50 (SH-SY5Y cells [5]): 7.63 ± 0.74 µM | EC50 (PC 12 cells [6]): 10.7 ± 1.26 µM | EC50 (SH-SY5Y cells [7]): 7.63 ± 0.74 µM

CCc1nc2ccc(Cc3ccc(C(=O)NO)cc3)cc2c(=O)n1CCc1ccccc1 [Compound 4a, 4-((2-ethyl-3,4-dihydro-4-oxo-3-phenethylquinazolin-6-yl)methyl)-N-hydroxybenzamide]
IC50 [3]: 1 to 10 µM | IC50 [1, 12]: < 0.1 µM | selective inhibitions on HDAC6 [1]: selective inhibitions on HDAC6 | IC50 [2, 13]: < 0.1 µM | EC50 (PC 12 cells [4]): 2.89 ± 0.45 µM | EC50 (SH-SY5Y cells [5]): 4.06 ± 0.58 µM | EC50 (PC 12 cells [6]): 2.89 ± 0.45 µM | EC50 (SH-SY5Y cells [7]): 4.06 ± 0.58 µM

CCc1nc2cc(Cc3ccc(C(=O)NO)cc3)ccc2c(=O)n1CCc1ccccc1 [Compound 4b, 4-((2-ethyl-3,4-dihydro-4-oxo-3-phenethylquinazolin-7-yl)methyl)-N-hydroxybenzamide]
IC50 [1, 12]: < 0.1 µM | selective inhibitions on HDAC6 [1]: selective inhibitions on HDAC6 | IC50 [8]: 1 to 10 µM | IC50 [9]: 1 to 10 µM | IC50 [10]: 1 to 10 µM | IC50 [11]: 0.1 to 1 µM | melting point: 181 to 183 °C (dec.)

CCc1nc2c(Cc3ccc(C(=O)NO)cc3)cccc2c(=O)n1CCc1ccccc1 [Compound 4c, 4-((2-ethyl-3,4-dihydro-4-oxo-3-phenethylquinazolin-8-yl)methyl)-N-hydroxybenzamide]
IC50 [1]: 0.1 to 1 µM | IC50 [2]: 0.1 to 1 µM | IC50 [8]: ≥ 10 µM | IC50 [9]: ≥ 10 µM | IC50 [10]: ≥ 10 µM | IC50 [11]: 1 to 10 µM | EC50 (PC 12 cells [6]): 5.34 ± 0.85 µM

CCc1nc2c(-c3ccc(C(=O)NO)cc3)cccc2c(=O)n1CCc1ccccc1 [Compound 5a, 4-(2-ethyl-3,4-dihydro-4-oxo-3-phenethylquinazolin-8-yl)-N-hydroxybenzamide]
IC50 [8]: ≥ 10 µM | IC50 [9]: ≥ 10 µM | IC50 [10]: 1 to 10 µM | IC50 [11]: ≥ 10 µM | melting point: 202 to 204 °C (dec.)
